# Data published in patent US12319640B2, “Cyclic diones as herbicidal compounds” (SYNGENTA CROP PROTECTION AG, priority 2019, dated 2025).
# How the values were obtained:
# Experiment in all cases: Glasshouse herbicide test, pre- and post-emergence
# Assay type in all cases: in vivo
# Avena fatua (AVEFA) = details: 250 g/h, evaluated after 13 days, five-point scale; for percentage damage caused to the plant, AVEFA POST: post-emergence; for percentage damage caused to the plant, AVEFA PRE: pre-emergence
# Method: (§1) Seeds of a variety of test species are sown in standard soil in pots (Lolium perenne (LOLPE), Setaria faberi (SETFA), Alopecurus myosuroides (ALOMY), Echinochloa crus-galli (ECHCG), Avena fatua (AVEFA)). After cultivation for one day (pre-emergence) or after 8 days cultivation (post-emergence) under controlled conditions in a glasshouse (at 24/16° C., day/night; 14 hours light; 65% humidity), the plants are sprayed with an aqueous spray solution derived from the formulation of the technical active ingredient in acetone/water (50:50) solution containing 0.5% Tween 20 (polyoxyethelyene sorbitan monolaurate, CAS RN 9005-64-5). Compounds are applied at 250 g/h. The test plants are then grown in a glasshouse under controlled conditions in a glasshouse (at 24/16° C., day/night; 14 hours light; 65% humidity) and watered twice daily. After 13 days for pre and post-emergence, the test is evaluated for the percentage damage caused to the plant. The biological activities are shown in the following table on a five-point scale (5=80-100%; 4=60-79%; 3=40-59%; 2=20-39%; 1=0-19%).
# [1] = system: Alopecurus myosuroides (ALOMY); details: 250 g/h, evaluated after 13 days, five-point scale; for percentage damage caused to the plant, ALOMY POST: post-emergence; for percentage damage caused to the plant, ALOMY PRE: pre-emergence
# Method: as §1
# Setaria faberi (SETFA) = details: 250 g/h, evaluated after 13 days, five-point scale; for percentage damage caused to the plant, SETFA POST: post-emergence; for percentage damage caused to the plant, SETFA PRE: pre-emergence
# Method: as §1
# [2] = system: Echinochloa crus-galli (ECHCG); details: 250 g/h, evaluated after 13 days, five-point scale; for percentage damage caused to the plant, ECHCG POST: post-emergence; for percentage damage caused to the plant, ECHCG PRE: pre-emergence
# Method: as §1
# Lolium perenne (LOLPE) = details: 250 g/h, evaluated after 13 days, five-point scale; for percentage damage caused to the plant, LOLPE POST: post-emergence; for percentage damage caused to the plant, LOLPE PRE: pre-emergence
# Method: as §1
Compound,"percentage damage caused to the plant, AVEFA POST (Avena fatua (AVEFA))","percentage damage caused to the plant, AVEFA PRE (Avena fatua (AVEFA))","percentage damage caused to the plant, ALOMY POST [1]","percentage damage caused to the plant, ALOMY PRE [1]","percentage damage caused to the plant, SETFA POST (Setaria faberi (SETFA))","percentage damage caused to the plant, SETFA PRE (Setaria faberi (SETFA))","percentage damage caused to the plant, ECHCG POST [2]","percentage damage caused to the plant, ECHCG PRE [2]","percentage damage caused to the plant, LOLPE POST (Lolium perenne (LOLPE))","percentage damage caused to the plant, LOLPE PRE (Lolium perenne (LOLPE))"
CC(=O)NC1CCC2(CC1)CC(=O)C(c1c(C)cc(-c3ccc(F)cc3)cc1C)C(=O)C2 (centres unmarked) [Compound 2.027],5 (5=80-100%),4 (4=60-79%),5 (5=80-100%),3 (3=40-59%),5 (5=80-100%),5 (5=80-100%),5 (5=80-100%),2 (2=20-39%),5 (5=80-100%),4 (4=60-79%)
CC#Cc1cc(C)c(C2C(=O)CC3(CCC(NC(=O)[C@H](C)O)CC3)CC2=O)c(C)c1 (some centres unmarked) [Compound 2.017],5 (5=80-100%),4 (4=60-79%),5 (5=80-100%),4 (4=60-79%),5 (5=80-100%),5 (5=80-100%),5 (5=80-100%),5 (5=80-100%),5 (5=80-100%),4 (4=60-79%)
CC#Cc1cc(C)c(C2C(=O)CC3(CCC(C(=O)NC(=O)c4ccccn4)CC3)CC2=O)c(C)c1 (centres unmarked) [Compound 1.003],5 (5=80-100%),4 (4=60-79%),5 (5=80-100%),4 (4=60-79%),5 (5=80-100%),5 (5=80-100%),5 (5=80-100%),5 (5=80-100%),5 (5=80-100%),4 (4=60-79%)
CC#Cc1cc(C)c(C2C(=O)CC3(CCC(NC(=O)NC(C)(C)C)CC3)CC2=O)c(C)c1 (centres unmarked) [Compound 2.021],5 (5=80-100%),4 (4=60-79%),5 (5=80-100%),5 (5=80-100%),5 (5=80-100%),5 (5=80-100%),5 (5=80-100%),5 (5=80-100%),5 (5=80-100%),5 (5=80-100%)
CC#Cc1cc(C)c(C2C(=O)CC3(CCC(C(=O)NC)C3)CC2=O)c(C)c1 (centres unmarked) [Compound 1.018],5 (5=80-100%),5 (5=80-100%),5 (5=80-100%),5 (5=80-100%),5 (5=80-100%),5 (5=80-100%),5 (5=80-100%),5 (5=80-100%),5 (5=80-100%),5 (5=80-100%)
CC#Cc1cc(C)c(C2C(=O)CC3(CCC(C(=O)NC(C)(C#N)CC)CC3)CC2=O)c(C)c1 (centres unmarked) [Compound 1.014],5 (5=80-100%),2 (2=20-39%),5 (5=80-100%),3 (3=40-59%),5 (5=80-100%),5 (5=80-100%),5 (5=80-100%),5 (5=80-100%),5 (5=80-100%),5 (5=80-100%)
CNC(=O)C1CCC2(CC1)CC(=O)C(c1c(C)cc(-c3ccc(F)cn3)cc1C)C(=O)C2 (centres unmarked) [Compound 1.024],5 (5=80-100%),5 (5=80-100%),5 (5=80-100%),5 (5=80-100%),5 (5=80-100%),5 (5=80-100%),5 (5=80-100%),5 (5=80-100%),5 (5=80-100%),5 (5=80-100%)
CC(=O)NC1CCC2(CC1)CC(=O)C(c1c(C)cc(-c3ncc(F)cn3)cc1C)C(=O)C2 (centres unmarked) [Compound 2.028],5 (5=80-100%),4 (4=60-79%),5 (5=80-100%),5 (5=80-100%),5 (5=80-100%),5 (5=80-100%),5 (5=80-100%),5 (5=80-100%),5 (5=80-100%),5 (5=80-100%)
CC#Cc1cc(C)c(C2C(=O)CC3(CCC(C(=O)NC)CC3)CC2=O)c(OC)c1 (centres unmarked) [Compound 1.016],5 (5=80-100%),5 (5=80-100%),5 (5=80-100%),5 (5=80-100%),5 (5=80-100%),5 (5=80-100%),5 (5=80-100%),5 (5=80-100%),5 (5=80-100%),5 (5=80-100%)
CC#Cc1cc(C)c(C2C(=O)CC3(CCC(C(=O)N4CCOCC4=O)CC3)CC2=O)c(C)c1 (centres unmarked) [Compound 1.005],5 (5=80-100%),4 (4=60-79%),4 (4=60-79%),3 (3=40-59%),5 (5=80-100%),5 (5=80-100%),5 (5=80-100%),5 (5=80-100%),5 (5=80-100%),5 (5=80-100%)
CC#Cc1cc(C)c(C2C(=O)CC3(CCC(C(=O)NCCOC)CC3)CC2=O)c(C)c1 (centres unmarked) [Compound 1.011],5 (5=80-100%),5 (5=80-100%),5 (5=80-100%),5 (5=80-100%),5 (5=80-100%),5 (5=80-100%),5 (5=80-100%),5 (5=80-100%),5 (5=80-100%),5 (5=80-100%)
CC#Cc1cc(C)c(C2C(=O)CC3(CCC(C(=O)NCCO)CC3)CC2=O)c(C)c1 (centres unmarked) [Compound 1.012],4 (4=60-79%),4 (4=60-79%),4 (4=60-79%),4 (4=60-79%),5 (5=80-100%),4 (4=60-79%),5 (5=80-100%),4 (4=60-79%),4 (4=60-79%),4 (4=60-79%)
CC#Cc1cc(C)c(C2C(=O)CC3(CCC(NC(=O)C(=O)NC)CC3)CC2=O)c(C)c1 (centres unmarked) [Compound 2.007],5 (5=80-100%),5 (5=80-100%),5 (5=80-100%),5 (5=80-100%),5 (5=80-100%),5 (5=80-100%),5 (5=80-100%),5 (5=80-100%),5 (5=80-100%),5 (5=80-100%)
CC#Cc1cc(C)c(C2C(=O)CC3(CCC(C(=O)NOC)CC3)CC2=O)c(C)c1 (centres unmarked) [Compound 1.010],5 (5=80-100%),3 (3=40-59%),4 (4=60-79%),3 (3=40-59%),5 (5=80-100%),5 (5=80-100%),5 (5=80-100%),5 (5=80-100%),5 (5=80-100%),5 (5=80-100%)
